The text below walks through data of ChEMBL document CHEMBL1149389 (Bioorg Med Chem Lett, 2006).

In one series the target is D(2) dopamine receptor (Homo sapiens, UniProt P14416). The experiment in a line: Binding affinity to human cloned dopamine D2 receptor.
In another series the target is D(3) dopamine receptor (Homo sapiens, UniProt P35462). As to the kind of experiment: Binding affinity to human cloned dopamine D3 receptor.
For another series, the system named is Rattus norvegicus. The experiment in a line: Antagonism of agonist-induced huddling deficits in orally administered rat. Type of series: functional. The note with it: po.
The test system of series [1] is Liver microsomes. As to the kind of experiment: Metabolic stability in human liver microsomes. Format: ADME, Microsome. For orientation: Liver microsomes are a subcellular fraction often used to study metabolism.
The subject of series [2] is Liver microsomes. The experiment in a line: Metabolic stability in rat liver microsomes. Format: ADME, Microsome.
The nature of series [3]: Permeability across Caco-2 cell membrane. Format: ADME, cell-based. The note with it: human.

Structures are written as SMILES.

D(2) dopamine receptor, sequence (P14416 whole entry): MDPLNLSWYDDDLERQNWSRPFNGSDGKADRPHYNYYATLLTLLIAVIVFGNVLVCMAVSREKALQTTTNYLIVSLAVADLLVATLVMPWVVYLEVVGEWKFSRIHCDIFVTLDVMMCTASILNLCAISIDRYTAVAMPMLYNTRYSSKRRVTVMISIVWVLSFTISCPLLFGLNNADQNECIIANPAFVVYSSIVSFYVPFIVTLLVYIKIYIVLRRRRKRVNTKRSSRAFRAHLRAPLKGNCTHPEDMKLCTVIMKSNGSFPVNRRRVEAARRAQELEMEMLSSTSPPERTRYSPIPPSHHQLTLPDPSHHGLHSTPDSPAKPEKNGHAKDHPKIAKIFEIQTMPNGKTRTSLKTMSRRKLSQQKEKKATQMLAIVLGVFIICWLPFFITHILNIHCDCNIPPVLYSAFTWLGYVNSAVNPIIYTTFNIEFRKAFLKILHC
D(3) dopamine receptor, sequence (P35462 whole entry): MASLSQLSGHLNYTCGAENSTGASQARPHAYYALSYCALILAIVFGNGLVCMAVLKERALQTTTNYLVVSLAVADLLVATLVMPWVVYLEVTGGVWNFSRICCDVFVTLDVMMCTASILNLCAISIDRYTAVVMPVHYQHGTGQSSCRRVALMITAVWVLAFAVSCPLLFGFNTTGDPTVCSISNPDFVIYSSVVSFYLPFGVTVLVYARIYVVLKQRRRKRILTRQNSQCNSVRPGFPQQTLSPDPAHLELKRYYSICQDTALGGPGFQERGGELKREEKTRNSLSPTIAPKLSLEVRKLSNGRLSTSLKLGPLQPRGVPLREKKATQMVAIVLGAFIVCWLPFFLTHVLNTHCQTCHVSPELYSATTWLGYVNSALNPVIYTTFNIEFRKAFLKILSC

For `CC(C)(C)c1nc(N2CCN(CCCCn3ccc(N4CCC4)nc3=O)CC2)cc(C(F)(F)F)n1`, the Ki on D(2) dopamine receptor worked out at 82.1 nM; at D(3) dopamine receptor, 4.4 nM.
`CC(C)(C)c1nc(N2CCN(CCCCn3ccc(C4CCCCC4)nc3=O)CC2)cc(C(F)(F)F)n1`: the inhibitory constant (Ki) on D(2) dopamine receptor came out at 302 nM.
Turning to `Cn1c(=O)ccn(CCCCN2CCN(c3cc(C(F)(F)F)nc(C(C)(C)C)n3)CC2)c1=O`, the inhibition constant Ki on D(2) dopamine receptor worked out at 610 nM; at D(3) dopamine receptor, 11.8 nM.
`CC(C)(C)c1nc(N2CCN(CCCCn3ccc(-c4ccccc4)nc3=O)CC2)cc(C(F)(F)F)n1`: the Ki at D(2) dopamine receptor came out at 168 nM.
Turning to `Cc1cn(CCCCN2CCN(c3cc(C(F)(F)F)nc(C(C)(C)C)n3)CC2)c(=O)[nH]c1=O`, the affinity at D(2) dopamine receptor, expressed as Ki, was 320 nM. The same molecule showed an ED50 with Rattus norvegicus of 6.1 mg/kg. In addition, the Stability in the series with Liver microsomes [1] and with Liver microsomes [2] was above 97% in each case. Moreover, in series [3], the Papp is 1.94 ×10⁻⁶ cm/s.
Molecule `CC(C)(C)c1nc(N2CCN(CCCCn3cc(Cl)c(=O)[nH]c3=O)CC2)cc(C(F)(F)F)n1` gave a Ki at D(2) dopamine receptor of 220 nM.
Turning to `CC(C)(C)c1nc(N2CCN(CCCCn3ccc(N4CCCCC4)nc3=O)CC2)cc(C(F)(F)F)n1`, the values for the inhibition constant Ki on D(2) dopamine receptor and on D(3) dopamine receptor were 89.4 nM and 3.4 nM, respectively.
Turning to `CC(C)(C)c1nc(N2CCN(CCCCn3cc(C#N)c(=O)[nH]c3=O)CC2)cc(C(F)(F)F)n1`, the Ki at D(2) dopamine receptor was 473 nM.
In the case of `CCOc1ccn(CCCCN2CCN(c3cc(C(F)(F)F)nc(C(C)(C)C)n3)CC2)c(=O)n1`, the Ki on D(2) dopamine receptor was determined as 290 nM.
Consider `CC(C)(C)c1ccn(CCCCN2CCN(c3cc(C(F)(F)F)nc(C(C)(C)C)n3)CC2)c(=O)n1`, for which the inhibition constant (Ki) at D(2) dopamine receptor worked out at 216 nM.
Turning to `CC(C)(C)c1nc(N2CCN(CCCCn3ccc(C4CC4)nc3=O)CC2)cc(C(F)(F)F)n1`, the Ki on D(2) dopamine receptor amounted to 155 nM; at D(3) dopamine receptor, 3.7 nM.
`Cc1ccn(CCCCN2CCN(c3cc(C(F)(F)F)nc(C(C)(C)C)n3)CC2)c(=O)n1` gave an inhibition constant (Ki) at D(2) dopamine receptor of 307 nM.
On the same count and under the same terms, the value for `CC(C)(C)c1nc(N2CCN(CCCCn3ccc(C4CCC4)nc3=O)CC2)cc(C(F)(F)F)n1` was 273 nM.
`CCc1cn(CCCCN2CCN(c3cc(C(F)(F)F)nc(C(C)(C)C)n3)CC2)c(=O)[nH]c1=O`: the Ki is 148 nM on D(2) dopamine receptor and 1.7 nM on D(3) dopamine receptor.
In the case of `CC(C)(C)c1nc(N2CCN(CCCCn3cc(F)c(=O)[nH]c3=O)CC2)cc(C(F)(F)F)n1`, on D(2) dopamine receptor, the Ki turned out to be 602 nM.
As for `CC(C)(C)c1nc(N2CCN(CCCCn3cccnc3=O)CC2)cc(C(F)(F)F)n1`, the figures for the inhibitory constant (Ki) at D(2) dopamine receptor and on D(3) dopamine receptor were 447 nM and 12.9 nM, respectively.
For `CC(C)(C)c1nc(N2CCN(CCCCn3cc(C(F)(F)F)c(=O)[nH]c3=O)CC2)cc(C(F)(F)F)n1`, the inhibition constant Ki at D(2) dopamine receptor came out at 646 nM.
`CC(C)(C)c1nc(N2CCN(CCCCn3ccc(=O)[nH]c3=O)CC2)cc(C(F)(F)F)n1` gave a Ki at D(2) dopamine receptor of 196 nM.
With `Cc1cn(CCCCN2CCN(c3cc(C(F)(F)F)nc(C(C)(C)C)n3)CC2)c(=O)n(C)c1=O`, the figures for the Ki on D(2) dopamine receptor and at D(3) dopamine receptor were 356 nM and 10.4 nM, respectively.
`CC(C)(C)c1nc(N2CCN(CCCSc3nccc(O)n3)CC2)cc(C(F)(F)F)n1` [ABT-925] displayed a Ki at D(2) dopamine receptor of 351 nM.

As usually defined, the Ki is a dissociation constant, usually derived from enzyme kinetics or from competition with a known ligand. The low end stands for tighter binding, the high end for weaker binding. Usually ED50 stands for the dose at which the effect has come halfway, by size or by number of responders. As a reminder, the Papp is the rate of passage across a membrane or cell layer, normalised by area and donor concentration. The low end stands for slow passage, the high end for fast passage.
